In brackets after ≈: the same amount, converted by molar mass. Entries after “also recorded” stand apart in the source; their conditions may differ. Like-named read-outs stand apart in the source and are kept apart here.
Key:
Format in all cases: physicochemical
[1] = Effect of crystal form on stability, high humidity test for 5 days (XRD); conditions: room temperature, unsealed, desiccator with saturated potassium nitrate
Method: Evaluation on effect of crystal form on stability—high humidity test for 5 days
(§1) The amorphous form obtained in Example 11, crystal form IV obtained in Example 3, crystal form I obtained in Example 6, and crystal form II obtained in Example 8 were each taken 30 mg, in triplicate, put into a penicillin bottle, which is transferred, without being sealed, at room temperature into a desiccator with saturated potassium nitrate at the bottom, and the samples were taken after 5 days and tested by XRD.

[2] = Effect of crystal form on stability, high temperature test for 5 days (XRD); conditions: 60° C., unsealed
Method: Evaluation on effect of crystal form on stability—high temperature test for 5 days
as §1, with “to QG 2003 ba incubation and drying oven, of which the” for “at room”, “was adjusted to 60° C. The” for “into a desiccator with saturated potassium nitrate at the bottom, and the”

[3] = Solubility of crystal forms in different environments
Text: The solubilities (μg/mL) of crystal form I in different environments are shown in […]

[4] = Stability in solution within 24 hours
[5] = Accelerated stability test for 30 days (XRD); conditions: 40° C., sealed bags
Method: Evaluation for accelerated stability of crystal forms I, II and IV
Crystal form IV obtained in Example 3, crystal form I obtained in Example 6, and crystal form II obtained in Example 8 were each taken 30 mg, in triplicate, put into sealed bags, which is transferred into BPN-80CH CO2 incubator, of which the temperature was set at 40° C. The samples were taken after 30 days and tested by XRD.

[6] = Simulated fasting intestinal fluid (FaSSIF), R.T. (25° C.)
[7] = Simulated gastric fluid (SGF), 37° C.
[8] = Simulated gastric fluid (SGF), R.T. (25° C.)
[9] = Simulated gastric fluid (SGF), Ultrasonic
[10] = Simulated postprandial intestinal fluid (FeSSIF), 37° C.
[11] = Simulated postprandial intestinal fluid (FeSSIF), R.T. (25° C.)
[12] = Simulated postprandial intestinal fluid (FeSSIF), Ultrasonic
[13] = pH 1.2 hydrochloric acid solution, 37° C.
[14] = pH 1.2 hydrochloric acid solution, R.T. (25° C.)
[15] = pH 1.2 hydrochloric acid solution, Ultrasonic
[16] = pH 4.5 acetic acid-sodium acetate solution, 75° C.
[17] = pH 4.5 acetic acid-sodium acetate solution, R.T. (25° C.)
[18] = Simulated fasting intestinal fluid (FaSSIF)
[19] = Simulated postprandial intestinal fluid (FeSSIF)
[20] = pH 1.2 hydrochloric acid solution
[21] = pH 4.5 acetic acid-sodium acetate solution

SMILES | solid-form stability, change of XRD after high humidity test [1] | solid-form stability, change of XRD after high temperature test [2] | solubility [3, 6] [µg/mL] | solubility [3, 7] [µg/mL] | solubility [3, 8] [µg/mL] | solubility [3, 9] [µg/mL] | solubility [3, 10] [µg/mL] | solubility [3, 11] [µg/mL] | solubility [3, 12] [µg/mL] | solubility [3, 13] [µg/mL] | solubility [3, 14] [µg/mL] | solubility [3, 15] [µg/mL] | solubility [3, 16] [µg/mL] | solubility [3, 17] [µg/mL] | Stability [4, 18] | Stability ([4]; Simulated gastric fluid (SGF)) | Stability [4, 19] | Stability ([4]; Water) | Stability [4, 20] | solid-form stability, change of XRD after accelerated stability test [5] | also measured
COc1ncc(-c2ccc3ncc(C#N)c(N4CCOC[C@H]4C)c3c2)cc1NS(C)(=O)=O [amorphous form, (R)-N-(5-(3-cyano-4-(3-methylmorpholinyl)quinolin-6-yl)-2-methoxypyridin-3-yl)methanesulfonamide, reference compound] | obvious crystal transformation; also recorded: significant crystal transformation | obvious crystal transformation; also recorded: significant crystal transformation |  |  |  |  |  |  |  |  |  |  |  |  |  |  |  |  |  |  | 
COc1ncc(-c2ccc3ncc(C#N)c(N4CCOC[C@H]4C)c3c2)cc1NS(C)(=O)=O [crystal form I, (R)-N-(5-(3-cyano-4-(3-methylmorpholinyl)quinolin-6-yl)-2-methoxypyridin-3-yl)methanesulfonamide] | barely no change | barely no change | 2.07 (≈ 4.56 µM) | 167.38 (≈ 369 µM) | 99.81 (≈ 220 µM) | 119.65 (≈ 264 µM) | 11.35 (≈ 25 µM) | 8.09 (≈ 17.8 µM) | 9.46 (≈ 20.9 µM) | 404.30 (≈ 891 µM) | 275.20 (≈ 607 µM) | 294.60 (≈ 650 µM) | 1.55 (≈ 3.42 µM) | 1.29 (≈ 2.84 µM) | Stable within | Stable within | Stable within | Stable within | Stable within | barely no change; also recorded: stable | solubility ([3]; pH 1.2 hydrochloric acid solution, 75 °C, pH 1.2, simulated gastric fluid, thermodynamic from solid, pH 1.2 hydrochloric acid solution, 75° C., read-out: solubility): 868 µg/mL (≈ 1910 µM); solubility ([3]; pH 4.5 acetic acid-sodium acetate solution, 37 °C, pH 4.5, aqueous buffer, thermodynamic from solid, pH 4.5 acetic acid-sodium acetate solution, 37° C., read-out: solubility): 1.67 µg/mL (≈ 3.68 µM); solubility ([3]; pH 4.5 acetic acid-sodium acetate solution, pH 4.5, aqueous buffer, thermodynamic from solid, pH 4.5 acetic acid-sodium acetate solution, Ultrasonic, read-out: solubility): 1.56 µg/mL (≈ 3.44 µM); solubility ([3]; pH 6.8 PBS solution, 25 °C, pH 6.8, aqueous buffer, thermodynamic from solid, pH 6.8 PBS solution, R.T. (25° C.), read-out: solubility): 3.58 µg/mL (≈ 7.89 µM); solubility ([3]; pH 6.8 PBS solution, 37 °C, pH 6.8, aqueous buffer, thermodynamic from solid, pH 6.8 PBS solution, 37° C., read-out: solubility): 1.51 µg/mL (≈ 3.33 µM); solubility ([3]; pH 6.8 PBS solution, 75 °C, pH 6.8, aqueous buffer, thermodynamic from solid, pH 6.8 PBS solution, 75° C., read-out: solubility): 1.41 µg/mL (≈ 3.11 µM); solubility ([3]; pH 6.8 PBS solution, pH 6.8, aqueous buffer, thermodynamic from solid, pH 6.8 PBS solution, Ultrasonic, read-out: solubility): 2.79 µg/mL (≈ 6.15 µM); solubility ([3]; simulated fasting intestinal fluid (FaSSIF), 37 °C, fassif, thermodynamic from solid, Simulated fasting intestinal fluid (FaSSIF), 37° C., read-out: solubility): 2.87 µg/mL (≈ 6.33 µM); solubility ([3]; simulated fasting intestinal fluid (FaSSIF), 75 °C, fassif, thermodynamic from solid, Simulated fasting intestinal fluid (FaSSIF), 75° C., read-out: solubility): 8.64 µg/mL (≈ 19.1 µM); solubility ([3]; simulated fasting intestinal fluid (FaSSIF), fassif, thermodynamic from solid, Simulated fasting intestinal fluid (FaSSIF), Ultrasonic, read-out: solubility): 4.76 µg/mL (≈ 10.5 µM); solubility ([3]; simulated gastric fluid (SGF), 75 °C, simulated gastric fluid, thermodynamic from solid, Simulated gastric fluid (SGF), 75° C., read-out: solubility): 432 µg/mL (≈ 952 µM); solubility ([3]; simulated postprandial intestinal fluid (FeSSIF), 75 °C, fessif, thermodynamic from solid, Simulated postprandial intestinal fluid (FeSSIF), 75° C., read-out: solubility): 18.9 µg/mL (≈ 41.7 µM); solubility ([3]; water, 25 °C, water, thermodynamic from solid, Water, R.T. (25° C.), read-out: solubility): 3.84 µg/mL (≈ 8.47 µM); solubility ([3]; water, 37 °C, water, thermodynamic from solid, Water, 37° C., read-out: solubility): 3.87 µg/mL (≈ 8.53 µM); solubility ([3]; water, 75 °C, water, thermodynamic from solid, Water, 75° C., read-out: solubility): 2.24 µg/mL (≈ 4.94 µM); solubility ([3]; water, thermodynamic from solid, Water, Ultrasonic, read-out: solubility): 4.63 µg/mL (≈ 10.2 µM); Stability [4, 21]: Stable within; Stability ([4]; pH 6.8 PBS solution): Stable within; solid-form stability, change of XRD after high humidity test ([1]; listed as Crystal form I): stable; solid-form stability, change of XRD after high temperature test ([2]; listed as Crystal form I): stable
COc1ncc(-c2ccc3ncc(C#N)c(N4CCOC[C@H]4C)c3c2)cc1NS(C)(=O)=O [crystal form IV, (R)-N-(5-(3-cyano-4-(3-methylmorpholinyl)quinolin-6-yl)-2-methoxypyridin-3-yl)methanesulfonamide] | barely no change; also recorded: stable | barely no change; also recorded: stable | 6.05 (≈ 13.3 µM) | 655.37 (≈ 1450 µM) | 533.36 (≈ 1180 µM) | 570.49 (≈ 1260 µM) | 26.02 (≈ 57.4 µM) | 31.70 (≈ 69.9 µM) | 29.70 (≈ 65.5 µM) | 1431.40 (≈ 3160 µM) | 1283.50 (≈ 2830 µM) | 1289.40 (≈ 2840 µM) | 3.45 (≈ 7.61 µM) | 2.75 (≈ 6.06 µM) | Stable within | Stable within | Stable within | Stable within | Stable within | barely no change; also recorded: stable | solubility ([3]; Simulated fasting intestinal fluid (FaSSIF), 37° C.): 4.70 µg/mL (≈ 10.4 µM); solubility ([3]; Simulated fasting intestinal fluid (FaSSIF), 75° C.): 5.12 µg/mL (≈ 11.3 µM); solubility ([3]; Simulated fasting intestinal fluid (FaSSIF), Ultrasonic): 5.43 µg/mL (≈ 12 µM); solubility ([3]; Simulated gastric fluid (SGF), 75° C.): 766.58 µg/mL (≈ 1690 µM); solubility ([3]; Simulated postprandial intestinal fluid (FeSSIF), 75° C.): 28.48 µg/mL (≈ 62.8 µM); solubility ([3]; Water, 37° C.): 2.39 µg/mL (≈ 5.27 µM); solubility ([3]; Water, 75° C.): 2.98 µg/mL (≈ 6.57 µM); solubility ([3]; Water, R.T. (25° C.)): 2.68 µg/mL (≈ 5.91 µM); solubility ([3]; Water, Ultrasonic): 2.96 µg/mL (≈ 6.53 µM); solubility ([3]; pH 1.2 hydrochloric acid solution, 75° C.): 1516.50 µg/mL (≈ 3340 µM); solubility ([3]; pH 4.5 acetic acid-sodium acetate solution, 37° C.): 3.04 µg/mL (≈ 6.7 µM); solubility ([3]; pH 4.5 acetic acid-sodium acetate solution, Ultrasonic): 3.04 µg/mL (≈ 6.7 µM); solubility ([3]; pH 6.8 PBS solution, 37° C.): 2.18 µg/mL (≈ 4.81 µM); solubility ([3]; pH 6.8 PBS solution, 75° C.): 2.62 µg/mL (≈ 5.78 µM); solubility ([3]; pH 6.8 PBS solution, R.T. (25° C.)): 2.12 µg/mL (≈ 4.67 µM); solubility ([3]; pH 6.8 PBS solution, Ultrasonic): 2.48 µg/mL (≈ 5.47 µM); Stability [4, 21]: Stable within; Stability ([4]; pH 6.8 PBS solution): Stable within
COc1ncc(-c2ccc3ncc(C#N)c(N4CCOC[C@H]4C)c3c2)cc1NS(C)(=O)=O [crystal form II, (R)-N-(5-(3-cyano-4-(3-methylmorpholinyl)quinolin-6-yl)-2-methoxypyridin-3-yl)methanesulfonamide] | barely no change; also recorded: stable | barely no change; also recorded: stable |  |  |  |  |  |  |  |  |  |  |  |  |  |  |  |  |  | barely no change; also recorded: stable | 

Reference: US20230029066A1, “CRYSTAL FORMS OF FUSED RING COMPOUND, AND COMPOSITION THEREOF, PREPARATION METHOD THEREFOR AND APPLICATION THEREOF” (HANGZHOU YUSHENG MEDICAL TECHNOLOGY CO. LTD, priority 2019, published 2023)
